From patent publication US5330743A, “Aminosaccharide contrast agents for magnetic resonance images” (Magnetic Research, Inc., priority 1992, dated 1994)
Where two headings read alike, the source gives them in different places.

Key:
[1] = MR contrast enhancement of kidney in rabbits (T1W spin echo, 1.5 Tesla); format: in vivo, New Zealand White rabbits; conditions: 0.1 mM/kg intravenously; for time at which contrast enhancement of kidney was well demonstrated: after contrast injection
Excerpt: (§1) TR=750 msec. TE=37 msec. NEX=4. Flow compensation was used.

[2] = for time at which contrast enhancement of liver was well demonstrated: after contrast injection
Procedure: New Zealand White rabbits were used for all magnetic resonance imaging (MRI) experiments. A General Electric 1.5 Tesla system was used with the knee coil. T1W spin echo images were obtained every 10 minutes following contrast injection. Data points were taken as the time at the end of the scan. Each data point was measured in triplicate with sample signal intensities taken from the liver, kidney, and muscle. TR=750 msec. TE=37 msec. NEX=4. Flow compensation was used. Sedation was performed by using an initial injection of intramuscular ketamine at 110 mg/kg and pentobarbital intravenously at 2.2 cc/kg. Sedation was maintained with intermittent pentobarbital injections as needed at 1 cc/kg.
Two rabbits were given gadolinium DTPA bis-glucosamide at 0.1 mM/kg intravenously. MR images were taken before and after the injection of the contrast agent.
MR images were taken before and after the injection of contrast agent.
Gadolinium DTPA bis-pyriodoxamide was given intravenously at 0.1 mM/kg. MR images were taken before and after the injection of contrast agent.
Comparison is made with two animals which were given Gd DTPA (Schering A. G., Berlin, Germany) 0.1 mM/kg intravenously.

[3] = MR contrast enhancement of muscle in rabbits (T1W spin echo, 1.5 Tesla); format: in vivo, New Zealand White rabbits; conditions: 0.1 mM/kg intravenously
Excerpt: as §1

[4] = 11 min. P.I., 0.1 mM/kg intravenously
[5] = 21 min. P.I., 0.1 mM/kg intravenously
[6] = 31 min. P.I., 0.1 mM/kg intravenously
[7] = 44 min. P.I., 0.1 mM/kg intravenously
[8] = 54 min. P.I., 0.1 mM/kg intravenously
[9] = 64 min. P.I., 0.1 mM/kg intravenously
[10] = 76 min. P.I., 0.1 mM/kg intravenously
[11] = 85 min. P.I., 0.1 mM/kg intravenously
[12] = Pre-Contrast, 0.1 mM/kg intravenously

Compound	time at which contrast enhancement of kidney was well demonstrated [1] [min]	contrast enhancement, kidney composite (av of 3) ([1]; 11 min. P.I.) [%]	contrast enhancement, kidney composite (av of 3) ([1]; 21 min. P.I.) [%]	contrast enhancement, kidney composite (av of 3) ([1]; 31 min. P.I.) [%]	contrast enhancement, kidney composite (av of 3) ([1]; 44 min. P.I.) [%]	contrast enhancement, kidney composite (av of 3) ([1]; 54 min. P.I.) [%]	contrast enhancement, kidney composite (av of 3) ([1]; 64 min. P.I.) [%]	contrast enhancement, kidney composite (av of 3) ([1]; 76 min. P.I.) [%]	contrast enhancement, kidney composite (av of 3) ([1]; Pre-Contrast) [%]	contrast enhancement, liver composite (av of 3) [2, 4] [%]	contrast enhancement, liver composite (av of 3) [2, 5] [%]	contrast enhancement, liver composite (av of 3) [2, 6] [%]	contrast enhancement, liver composite (av of 3) [2, 7] [%]	contrast enhancement, liver composite (av of 3) [2, 8] [%]	contrast enhancement, liver composite (av of 3) [2, 9] [%]	contrast enhancement, liver composite (av of 3) [2, 12] [%]	contrast enhancement, muscle composite (av of 3) ([3]; 11 min. P.I.) [%]	contrast enhancement, muscle composite (av of 3) ([3]; 21 min. P.I.) [%]	contrast enhancement, muscle composite (av of 3) ([3]; 31 min. P.I.) [%]	contrast enhancement, muscle composite (av of 3) ([3]; Pre-Contrast) [%]	further results
O=C([O-])CN(CCN(CC(=O)[O-])CC(=O)N[C@H]1C(O)O[C@H](CO)[C@H](O)[C@@H]1O)CCN(CC(=O)[O-])CC(=O)N[C@H]1C(O)O[C@H](CO)[C@H](O)[C@@H]1O.[Gd+3] (stereo partly shown) [Gd DTPA Galactosamide, gadolinium DTPA galactosamide]	11	52.932	47.999	46.968	41.697	41.936	42.336	37.335	0.000	21.943	13.116	15.632	11.724	13.202	8.360	0.000	18.349	24.593	12.578	0.000	course of contrast enhancement after maximum, kidney [1]: decreased very slowly; time of maximum contrast enhancement, kidney [1]: 22 min; contrast enhancement, kidney composite (av of 3) ([1]; 85 min. P.I.): 26.562%; course of contrast enhancement after maximum, liver ([2]; 0.1 mM/kg intravenously): decreased rapidly; enhancement of the liver compared to Gd DTPA ([2]; 0.1 mM/kg intravenously): improved enhancement; time of maximum contrast enhancement, liver ([2]; 0.1 mM/kg intravenously): 11 min; time at which contrast enhancement of liver was well demonstrated ([2]; 0.1 mM/kg intravenously): 11 min; contrast enhancement, liver composite (av of 3) [2, 10]: 11.639%; contrast enhancement, liver composite (av of 3) [2, 11]: 15.451%; time at which contrast agent appears to have been cleared from the liver ([2]; rabbit, in vivo, iv): 76 min; enhancement of the muscle compared to Gd DTPA [3]: improved enhancement; contrast enhancement, muscle composite (av of 3) ([3]; 44 min. P.I.): 7.783%; contrast enhancement, muscle composite (av of 3) ([3]; 54 min. P.I.): 14.531%; contrast enhancement, muscle composite (av of 3) ([3]; 64 min. P.I.): 12.252%; contrast enhancement, muscle composite (av of 3) ([3]; 76 min. P.I.): -10.121%; contrast enhancement, muscle composite (av of 3) ([3]; 85 min. P.I.): -3.078%
O=C([O-])CN(CCN(CC(=O)[O-])CC(=O)[O-])CCN(CC(=O)[O-])CC(=O)[O-].[Gd+3] [Gd DTPA, gadolinium diethylene triamine pentaacetic acid complex, reference compound]	–	52.456	40.275	28.971	29.243	28.405	27.052	23.751	0.000	4.822	0.852	6.132	-2.041	-2.714	-1.063	0.000	12.981	6.801	2.020	0.000	contrast enhancement, kidney composite (av of 3) ([1]; 85 min. P.I.): 14.643%; contrast enhancement, liver composite (av of 3) [2, 10]: -0.232%; contrast enhancement, liver composite (av of 3) [2, 11]: -0.422%; contrast enhancement, muscle composite (av of 3) ([3]; 44 min. P.I.): -1.543%; contrast enhancement, muscle composite (av of 3) ([3]; 54 min. P.I.): -0.464%; contrast enhancement, muscle composite (av of 3) ([3]; 64 min. P.I.): -0.873%; contrast enhancement, muscle composite (av of 3) ([3]; 76 min. P.I.): -2.407%; contrast enhancement, muscle composite (av of 3) ([3]; 85 min. P.I.): -0.899%
Cc1ncc(CO)c(CNC(=O)CN(CCN(CCN(CC(=O)[O-])CC(=O)NCc2c(CO)cnc(C)c2O)CC(=O)[O-])CC(=O)[O-])c1O.[Gd+3] [Gd DTPA Bis-Pyridoxamide, Gadolinium DTPA bis-pyriodoxamide]	11	72.341	50.381	53.753	–	–	–	–	0.000	-4.567	-4.805	-3.018	–	–	–	0.000	7.089	6.846	-12.884	0.000	enhancement of the kidney compared to Gd DTPA [1]: improved renal enhancement; time of maximum contrast enhancement, kidney [1]: 11 min; liver enhancement (in words) ([2]; 0.1 mM/kg intravenously): negative liver enhancement
O=C([O-])CN(CCN(CC(=O)[O-])CC(=O)N[C@H]1C(O)O[C@H](CO)[C@@H](O)[C@@H]1O)CCN(CC(=O)[O-])CC(=O)N[C@H]1C(O)O[C@H](CO)[C@@H](O)[C@@H]1O.[Gd+3] (stereo partly shown) [Gd DTPA Bis-Glucosamide, gadolinium DTPA bis-glucosamide]	11	77.532	68.552	46.320	42.172	31.288	30.596	22.065	0.000	17.157	14.172	11.053	7.390	9.910	3.151	0.000	3.791	-3.481	-2.205	0.000	course of contrast enhancement after maximum, kidney [1]: decreased gradually; enhancement of the kidney compared to Gd DTPA [1]: improved enhancement; time until which maximum contrast enhancement was maintained, kidney [1]: 22 min; course of contrast enhancement after maximum, liver ([2]; 0.1 mM/kg intravenously): decreased gradually; decrease in contrast, liver versus kidney ([2]; 0.1 mM/kg intravenously): slower in the liver than in the kidney; enhancement of the liver compared to Gd DTPA ([2]; 0.1 mM/kg intravenously): improved enhancement; time until which maximum contrast enhancement was maintained, liver ([2]; 0.1 mM/kg intravenously): 22 min; time at which contrast enhancement of liver was well demonstrated ([2]; 0.1 mM/kg intravenously): 11 min; contrast enhancement, liver composite (av of 3) [2, 10]: 1.750%; contrast enhancement, muscle composite (av of 3) ([3]; 44 min. P.I.): -6.098%; contrast enhancement, muscle composite (av of 3) ([3]; 54 min. P.I.): -7.962%; contrast enhancement, muscle composite (av of 3) ([3]; 64 min. P.I.): -11.035%; contrast enhancement, muscle composite (av of 3) ([3]; 76 min. P.I.): -5.465%
